Publication doi:10.1101/2024.03.08.584059, “AllTheBacteria: a community resource empowers biology and discovers novel peptide antibiotics” (bioRxiv, 2026)
In brackets after ≈: the same amount, converted by molar mass. Ends that are not written are not given here.

What was measured:
E. coli ATCC BAA-3170 = test: microbe, parasite or virus in culture; settings: Escherichia coli, ATCCBAA3170, 24 h, read-out: Minimal Inhibitory Concentration, E. coli ATCC BAA-3170 (-) - CRE
Procedure: (§1) Figure 4. […] Briefly, 10[5] bacterial cells were incubated with serially diluted peptides (0–64 μmol L^−1) at 37 °C. Bacterial growth was assessed by measuring the optical density at 600 nm in a microplate reader one day post-treatment.

A. baumannii ATCC 19606 [1] = test: microbe, parasite or virus in culture; settings: Acinetobacter baumannii, ATCC19606, 24 h, read-out: Minimal Inhibitory Concentration, A. baumannii ATCC 19606 (-)
Procedure: as §1

E. coli K-12 BW25113 = test: microbe, parasite or virus in culture; settings: Escherichia coli, BW25113, 24 h, read-out: Minimal Inhibitory Concentration, E. coli K-12 BW25113 (-)
Procedure: as §1

P. aeruginosa PAO1 = test: microbe, parasite or virus in culture; settings: Pseudomonas aeruginosa, PAO1, 24 h, read-out: Minimal Inhibitory Concentration, P. aeruginosa PAO1 (-)
Procedure: as §1

[2] = test system: S. aureus ATCC BAA-1556 (MRSA); test: microbe, parasite or virus in culture; settings: Staphylococcus aureus, ATCCBAA1556|MRSA, 24 h, read-out: Minimal Inhibitory Concentration, S. aureus ATCC BAA-1556 - MRSA (+)
Procedure: as §1

[3] = test system: S. enterica Typhimurium ATCC 700720; test: microbe, parasite or virus in culture; settings: Salmonella enterica, ATCC700720|TYPHIMURIUM, 24 h, read-out: Minimal Inhibitory Concentration, S. enterica Typhimurium ATCC 700720
Procedure: as §1

[4] = test system: A. baumannii ATCC BAA-1605; test: microbe, parasite or virus in culture; settings: Acinetobacter baumannii, ATCCBAA1605, 24 h, read-out: Minimal Inhibitory Concentration, A. baumannii ATCC BAA-1605 (-) - CGTPACCIMRA
Procedure: as §1

E. coli ATCC 11775 = test: microbe, parasite or virus in culture; settings: Escherichia coli, ATCC11775, 24 h, read-out: Minimal Inhibitory Concentration, E. coli ATCC 11775 (-)
Procedure: as §1

S. enterica ATCC 9150 = test: microbe, parasite or virus in culture; settings: Salmonella enterica, ATCC9150, 24 h, read-out: Minimal Inhibitory Concentration, S. enterica ATCC 9150 (-)
Procedure: as §1

K. pneumoniae ATCC 13883 = test: microbe, parasite or virus in culture; settings: Klebsiella pneumoniae, ATCC13883, 24 h, read-out: Minimal Inhibitory Concentration, K. pneumoniae ATCC 13883 (-)
Procedure: as §1

P. aeruginosa PA14 = test: microbe, parasite or virus in culture; settings: Pseudomonas aeruginosa, PA14, 24 h, read-out: Minimal Inhibitory Concentration, P. aeruginosa PA14 (-)
Procedure: as §1

S. aureus ATCC 12600 = test: microbe, parasite or virus in culture; settings: Staphylococcus aureus, ATCC12600, 24 h, read-out: Minimal Inhibitory Concentration, S. aureus ATCC 12600 (+)
Procedure: as §1

E. cloacae ATCC 13047 = test: microbe, parasite or virus in culture; settings: Enterobacter cloacae, ATCC13047, 24 h, read-out: Minimal Inhibitory Concentration, E. cloacae ATCC 13047 (-)
Procedure: as §1

[5] = test system: K. pneumoniae ATCC BAA-2342; test: microbe, parasite or virus in culture; settings: Klebsiella pneumoniae, ATCCBAA2342, 24 h, read-out: Minimal Inhibitory Concentration, K. pneumoniae ATCC BAA-2342 (-) - EIRK
Procedure: as §1

E. coli AIC221 = test: MIC, broth microdilution; format: cell-based; settings: Escherichia coli, AIC221, 24 h, read-out: Minimal Inhibitory Concentration, E. coli AIC221 (-)
Procedure: Figure 4. Antimicrobial activity of APEX-predicted AllTheBacteria peptides. Heat map displaying the antimicrobial activities (μmol L^−1) of ATB peptides (rows) against 20 clinically relevant pathogens (columns) , including antibiotic-resistant strains. Briefly, 10[5] bacterial cells were incubated with serially diluted peptides (0–64 μmol L^−1) at 37 °C. Bacterial growth was assessed by measuring the optical density at 600 nm in a microplate reader one day post-treatment.

[6] = test system: E. faecalis ATCC 700802 (VRE); test: MIC, broth microdilution; format: cell-based; settings: Enterococcus faecalis, 24 h, Fig. 4 heat map, vancomycin-resistant, LB, 0–64 μmol L^−1, 37 °C, one day, OD600, mode of replicates, read-out: Minimal Inhibitory Concentration, E. faecalis ATCC 700802 - VRE (+)
Procedure: as §1

B. subtilis ATCC 23857 = test: MIC, broth microdilution; format: cell-based; settings: Bacillus subtilis, ATCC23857, 24 h, Fig. 4 heat map, LB, 0–64 μmol L^−1, 37 °C, one day, OD600, mode of replicates, read-out: Minimal Inhibitory Concentration, B. subtilis ATCC 23857 (+)
Procedure: as §1

E. coli AIC222 = test: microbe, parasite or virus in culture; format: cell-based; settings: Escherichia coli, AIC222, 24 h, read-out: Minimal Inhibitory Concentration, E. coli AIC222 - CRE (-)
Procedure: as §1

[7] = test system: human embryonic kidney (HEK293T) cells; settings: 24 h
Procedure: The cells were cultured in high-glucose Dulbecco’s modified Eagle’s medium supplemented with 1% penicillin and streptomycin (antibiotics) and 10% fetal bovine serum and grown at 37 °C in a humidified atmosphere containing 5% CO2.
One day prior to the experiment, 100 μL aliquots of human embryonic kidney (HEK293T) cells, at a concentration of 50,000 cells per mL, were seeded into each well of 96-well plates (5,000 cells per well). Following cell attachment, the HEK293T cells were treated with increasing concentrations of peptides (ranging from 8 to 128 μmol L^−1) and incubated for 24 h. After the exposure period, cytotoxicity was assessed using the 3-(4,5-dimethylthiazol-2-yl)-2,5-diphenyltetrazolium bromide (MTT) assay. Specifically, the MTT reagent was prepared at a concentration of 0.5 mg mL^−1 in phenol red-free medium and used to replace the peptide-containing supernatants (100 μL per well). The plates were then incubated for 4 h at 37 °C in a humidified atmosphere with 5% CO2, facilitating the formation of insoluble formazan crystals. These crystals were subsequently dissolved in 0.04 mol L^−1 hydrochloric acid prepared in anhydrous isopropanol. Absorbance was measured at 570 nm using a spectrophotometer to quantify cell viability. All experiments were conducted in triplicate (three biological replicates).
To evaluate the safety profile of the ATB peptides, we measured their cytotoxicity against human embryonic kidney (HEK293T) cells using a 3-(4,5-dimethylthiazol-2-yl)-2,5-diphenyltetrazolium bromide (MTT) viability assay and determined half-maximal cytotoxic concentrations (CC50). […]
index as the ratio CC50 (HEK293T) / MIC against A. baumannii ATCC 19606.

[8] = test system: 20 clinically relevant Gram-negative and Gram-positive bacterial strains; test: Antibacterial profiling across the panel; format: cell-based; settings: in words; 20-strain MIC panel
Excerpt: We first compared the predicted AllTheBacteria (here abbreviated ATB) peptides with antimicrobial peptides curated in widely used databases (see Supp. Note 3, Supp. Figs 10-13). ATB peptides were enriched in basic residues, particularly lysine and arginine, and many also contained hydrophobic or aromatic residues, including leucine, isoleucine, and tryptophan. These features are consistent with electrostatic engagement of bacterial envelopes and potential membrane interaction. From this prioritized pool, we selected 24 peptides (Supp. Table 1) for chemical synthesis and experimental validation. The selected panel included highly cationic low-complexity sequences, mixed hydrophobic–cationic architectures and tryptophan-rich motifs, allowing us to test whether distinct classes of ATB-derived encrypted peptides translate into antibacterial activity. The 24 synthesized peptides were profiled against 20 clinically relevant Gram-negative and Gram-positive bacterial strains, including antibiotic-resistant ones (Fig. 4). Antibacterial activity was most pronounced against Gram-negative species, including Acinetobacter baumannii, Escherichia coli, Enterobacter cloacae, Klebsiella pneumoniae, and Pseudomonas aeruginosa.
Figure 4. […] Bacterial growth was assessed by measuring the optical density at 600 nm in a microplate reader one day post-treatment.

[9] = Mouse weight monitoring in skin abscess model; format: in vivo; settings: CD-1 mice, 4 days total, single topical dose at 10×MIC, in words
Procedure: (§2) Figure 5. Anti-infective activity of a lead ATB peptide in a murine infection model. […] The limit of detection (LOD) for the CFU quantification is log10 CFU = 2. Bacterial burdens are shown as violin plots with individual data points overlaid; each point represents one animal. The horizontal line within each violin indicates the mean, and violin width reflects the distribution of values within each group. Statistical comparisons were performed separately for each time point using ordinary one-way ANOVA followed by Dunnett’s two-sided multiple comparisons test versus the control group. Exact p-values are shown above the indicated comparisons. (Panel a created in BioRender.)
The back of six-week-old female CD-1 mice under anesthesia were shaved and injured with a superficial linear skin abrasion made with a needle. An aliquot of A. baumannii ATCC 19606 (1.1×10^6 CFU mL^−1; […]) previously grown in LB medium until 0.5 OD mL^−1 (optical value at 600 nm) and then washed twice with sterile PBS (pH 7.4, 9,391 ģ for 3 min) was added to the scratched area. […] Two- and four-days post-infection, animals were euthanized, and a uniform excision of the scarified skin was excised, homogenized using a bead beater (25 Hz for 20 min), 10-fold serially diluted, and plated on McConkey agar plates for CFU quantification. The experiments were performed using six mice per group. […]

A. baumannii ATCC 19606 [10] = test: Skin abscess infection mouse model; format: in vivo, Acinetobacter baumannii; settings: CD-1 mice; for reduction of bacterial burden relative to untreated controls: single topical dose at 10×MIC
Procedure: as §2
The back of six-week-old female CD-1 mice under anesthesia were shaved and injured with a superficial linear skin abrasion made with a needle. An aliquot of A. baumannii ATCC 19606 (1.1×10^6 CFU mL^−1; […]) previously grown in LB medium until 0.5 OD mL^−1 (optical value at 600 nm) and then washed twice with sterile PBS (pH 7.4, 9,391 ģ for 3 min) was added to the scratched area. […] Two- and four-days post-infection, animals were euthanized, and a uniform excision of the scarified skin was excised, homogenized using a bead beater (25 Hz for 20 min), 10-fold serially diluted, and plated on McConkey agar plates for CFU quantification. The experiments were performed using six mice per group. Mice were single-housed to avoid cross-contamination and maintained under a 12-hour light/dark cycle at 22 °C with humidity controlled at 50%. The skin abscess infection mouse model was revised and approved by the University Laboratory Animal Resources (ULAR) from the University of Pennsylvania (Protocol 806763).
In the mouse experiments, all the raw data were log10 transformed and the statistical significance was determined using one-way ANOVA followed by Dunnett’s test. All the p values are shown for each of the groups, all groups were compared to the untreated control group. […] Statistical significance between different groups was calculated using the tests indicated in each figure legend. […]

E. coli isolates = settings: strain not named
Procedure: as §1

In the case of `C[C@H]1COc2c(N3CCN(C)CC3)c(F)cc3c(=O)c(C(=O)O)cn1c23` [Levofloxacin], the MIC (E. coli ATCC BAA-3170) was 0.1 µM (≈ 0.0361 µg/mL), the MIC (A. baumannii ATCC 19606 [1]) was 0.3 µM (≈ 0.108 µg/mL) and the MIC (E. coli K-12 BW25113) was 0.1 µM (≈ 0.0361 µg/mL). For the same molecule, the MIC (P. aeruginosa PAO1) was 4 µM (≈ 1.45 µg/mL), the MIC [2] was 4 µM (≈ 1.45 µg/mL) and the MIC [3] was 0.5 µM (≈ 0.181 µg/mL). It also gave an MIC [4] of 64 µM (≈ 23.1 µg/mL), an MIC (E. coli ATCC 11775) of 0.1 µM (≈ 0.0361 µg/mL) and an MIC (S. enterica ATCC 9150) of 0.1 µM (≈ 0.0361 µg/mL). For the same molecule, the MIC (K. pneumoniae ATCC 13883) was 0.1 µM (≈ 0.0361 µg/mL), the MIC (P. aeruginosa PA14) was 0.5 µM (≈ 0.181 µg/mL) and the MIC (S. aureus ATCC 12600) was 4 µM (≈ 1.45 µg/mL). For the same molecule, the MIC (E. cloacae ATCC 13047) was 0.1 µM (≈ 0.0361 µg/mL), the MIC [5] was 0.1 µM (≈ 0.0361 µg/mL) and the MIC (E. coli AIC221) was 0.1 µM (≈ 0.0361 µg/mL). The MIC [6] was 1 µM (≈ 0.361 µg/mL), the MIC (B. subtilis ATCC 23857) was 0.1 µM (≈ 0.0361 µg/mL) and the MIC (E. coli AIC222) was 0.1 µM (≈ 0.0361 µg/mL).
For “MKKLKIKKLKIKKLKIKKLKIKNLKIKKLKIKNLKI-OH [ATB15]”, the “half-maximal cytotoxic concentration (CC50)” value [7] was 9 to 12 µM and the “antibacterial activity across the panel” value [8] was “limited measurable activity”.
In the case of “MKLWKIVRFLALSKGAKALRKKPVRKAAASFVKSYALWKYIRRK-OH [ATB20]”, the mouse body weight [9] was “remained stable”, the “time for which proliferation of the infection was inhibited after treatment” value (A. baumannii ATCC 19606 [10]; single dose at 10xMIC post-infection, compared to untreated control) was “up to 4 days” and the “reduction of bacterial burden relative to untreated controls” value (A. baumannii ATCC 19606 [10]; day 4, n = 6) was ~ 1.5 log. The “reduction of bacterial burden relative to untreated controls” value (A. baumannii ATCC 19606 [10]; two days after infection, n = 6) was ~ 2 log.
In the case of “MRRRGWKVRLKRRRGWKVRLMRRRGWKVRLKRRRLVLPVWA-OH [ATB9]”, the “MIC, E. coli” value (E. coli isolates) was 4 µM.
